From PubChem BioAssay (NCI)
Values joined by “and” are separate entries in the source; they are usually repeats but may differ in a detail not shown here. Equal values may be shown once.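 Protocol summary: plate cells (96-well), add compound at 5 concentrations, incubate 48 h, interpolate endpoints linearly. Here, GI50 denotes the concentration required for 50% inhibition of growth. TGI denotes the concentration required for complete inhibition of growth.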 Where a SMILES comes first, the peptide text is derived from it. [ ]: non-standard residue; d: D form. pGlu = O=C1CC[CH](C(=O)O)N1

Experiments:
Experiment in all cases: inhibition of tumour cell growth, NCI panel, 48 h
[1] = test system: A498 renal
[2] = test system: MDA-MB-231 breast
[3] = test system: U251 CNS
[4] = test system: ACHN renal
[5] = test system: SF-268 CNS
[6] = test system: COLO 205 colon
[7] = test system: OVCAR-5 ovarian
[8] = test system: TK-10 renal
[9] = test system: MALME-3M melanoma
[10] = test system: HOP-92 NSCLC

Row | Compound | GI50 [1] [µM] | TGI [1] [µM] | GI50 [2] [µM] | TGI [2] [µM] | GI50 [3] [µM] | TGI [3] | GI50 [4] [µM] | TGI [4] | GI50 [5] [µM] | TGI [5] | GI50 [6] [µM] | TGI [6] | GI50 [7] [µM] | TGI [7] | GI50 [8] [µM] | TGI [8] | GI50 [9] [µM] | TGI [9] | GI50 [10] [µM] | TGI [10]
1 | COc1ccc2[nH]cc(-c3ccc(-c4c[nH]c5ccc(OC)cc45)s3)c2c1 | 3.58 | 14.3 | 2.88 | 8.55 | 3.68 | 12.6 µM | 4.14 | 15.9 µM | 8.11 | 31.7 µM | 4.68 | 11.5 µM | 6.43 | 18.7 µM | 6.29 | 21.3 µM | 9.13 | 22.4 µM | 4.64 | 19.5 µM
2 | CCNC(=O)C1CCCN1C(=O)C(CCCN=C(N)N)NC(=O)C(CC(C)C)NC(=O)C(CC(C)C)NC(=O)C(Cc1ccc(O)cc1)NC(=O)C(CO)NC(=O)C(Cc1c[nH]c2ccccc12)NC(=O)C(Cc1cnc[nH]1)NC(=O)C1CCC(=O)N1 (stereo not drawn) ([pGlu]HWSYLLRP-NHEt; configuration not given here) | > 100 | > 100 | > 100 | > 100 | > 100 | > 100 µM | > 100 | > 100 µM | > 100 | > 100 µM | > 100 | > 100 µM | > 100 | > 100 µM | > 100 | > 100 µM | > 100 | > 100 µM | > 100 | > 100 µM
3 | C/C=C(\C)C(=O)NC1=CC[C@@]2(C)C(=CCC3C2CC[C@@]2(C)C3CC[C@@H]2C(C)N(C)C)C1=O (stereo partly drawn) | 2.03 | 18.2 | 3.14 | 9.99 | 4.34 | 23.3 µM | 8.03 | > 47 µM | 2.14 | 6.93 µM | 1.72 | 3.45 µM | 4.78 | 25.4 µM | 12.3 | 32.4 µM | 2.1 | 5.34 µM | 1.66 | 14.8 µM
4 | CN(Cc1ccccc1)C(=NC#N)N(Cc1ccccc1)Cc1ccccc1 |  | > 100 |  | 58.7 |  | 96.9 µM |  | 78.3 µM |  | > 100 µM |  | 36.2 µM |  | 94.7 µM |  | > 100 µM |  | 67.1 µM |  | 55.1 µM
5 | Cc1c[n+](=O)c2ccccc2n1[O-] |  | > 100 |  | > 100 |  | > 100 µM |  | > 100 µM |  | > 100 µM |  | > 100 µM |  | > 100 µM |  | > 100 µM |  | > 100 µM |  | > 100 µM
6 | CN(CCO)CC[C@H](CSc1ccccc1)Nc1ccc(S(=O)(=O)NC(=O)c2ccc(N3CCC([C@@H](O)c4ccccc4-c4ccc(Cl)cc4)CC3)cc2)cc1S(=O)(=O)C(F)(F)F | 0.0288 | 0.252 | 0.235 | 0.936 | 2.82 | 8.88 µM | > 27.8 | > 100 µM | 3.92 | > 46 µM | 1.46 | 4.5 µM | 4.6 | > 50.4 µM | 5.2 | 19.2 µM | 2.48 | 8.55 µM | 0.0415 | 0.387 µM
7 | ClCc1cccc2c(CCl)cccc12 | 11 | 23.7 | 13 | 39 | 2.89 | 11.6 µM | 2.19 | 6.21 µM | 2.95 | 15 µM | 2.4 | 7.14 µM | 12.7 | 27.9 µM | 2.28 | 7.46 µM | 2.37 | 25.5 µM | 2.83 | 18.7 µM
8 | N#CC1(C#N)C2(c3ccccc3)OC(c3ccccc3)(c3cc4ccccc4cc32)C1(C#N)C#N |  | 35.1 |  | 31.9 |  | 35.9 µM |  | 28.5 µM |  | 39.5 µM |  | 18.1 µM |  | 29.3 µM |  | 41 µM |  | 37.9 µM |  | 7.05 µM
9 | CCOC(=O)N1CCN(/[N+]([O-])=N/Oc2ccc([N+](=O)[O-])cc2[N+](=O)[O-])CC1 | 17.5 | 35.6 | 1.99 | 7.08 | 1.55 | 21.5 µM | 0.479 | 1.37 µM | 3.86 | 10.6 µM | 0.349 | 14.4 µM | 2.16 | 9.09 µM | 0.406 | 5.57 µM | 1.59 | 4.05 µM | 0.122 | 3.75 µM
10 | C=C(C)C(O)CCC1(C)C=Cc2c(c(C)cc3c2[nH]c2ccccc23)O1 (stereo not drawn) |  | 26.6 |  | 11.4 |  | 11.1 µM and 17.6 µM |  | 25 µM and 16 µM | 5.6 | 25 µM and 19.3 µM | 2.43 | 9.81 µM and 6.13 µM | 2.11 | 8.96 µM and 6.03 µM | 14 | > 25 µM and 27 µM |  | 25 µM and 24.7 µM | 10.3 | 25 µM and 22.8 µM
11 | CCN(Cc1ccc(Cl)cc1)c1ccc(CO)c(Cl)c1 | 0.0311 | 0.153 | 4.95 | 20.3 | 0.863 | 13 µM | 4.64 | 19.6 µM | 13.5 | 29.6 µM | 2.2 | 8.57 µM | 0.258 | 2.04 µM | 0.0786 | 0.379 µM | 12.8 | 28.5 µM | 1.52 | 11.1 µM
12 | C[C@]12CC[C@@H]3c4ccc(OC(=O)N(CCCl)CCCl)cc4CC[C@H]3[C@@H]1CC[C@@H]2O | 1.6 | 9 | 2.59 | 8.29 | 2.58 | 13.8 µM and 26.9 µM | 3.71 | > 68.5 µM | 3.48 | 18.9 µM and 3.14 µM | 2.99 | 8.94 µM | 9.98 |  | 3.04 | 9.98 µM | 1.16 | 7.52 µM | 9.04 | 43.2 µM and 6.51 µM
13 | O=C1C(Cl)=C(Nc2cccc(Cl)c2)C(=O)N1Cc1ccc(Cl)cc1 | 1.55 | 11.9 | 0.216 | 1.22 | 0.312 | 14.2 µM | 1.39 | 15 µM | 1.41 | 19.3 µM | 1.46 | 18.2 µM | 0.864 | 15.1 µM | 3.37 | 15.4 µM | 0.137 | 2.84 µM | 1.3 | 4.96 µM
14 | CCN1C(=O)N(CC)C2C1NN=c1s/c(=C\c3cccc(F)c3)c(=O)n12 (stereo not drawn) | < 0.0184 | 0.184 | 0.405 | > 100 | 0.21 | > 100 µM | 0.196 | > 100 µM | 2.61 | > 100 µM | 0.243 | 4.92 µM | 0.556 | > 100 µM | 27.2 | > 100 µM | 0.429 | > 100 µM | 1.44 | > 79.8 µM
15 | O=C(c1ccccc1)c1ccccc1-c1ccccc1 | 2.08 | 15.6 | 5.14 | > 100 | 4.21 | 46.2 µM | 9.46 | > 100 µM | 6.55 | > 100 µM | 2.87 | 8.37 µM | 14.6 | > 100 µM | 6.28 | > 100 µM | 8.79 | 65.7 µM | 3.36 | 47.1 µM
16 | CC(C)Cn1cnc2c(SCc3ccc(Cl)cc3Cl)nc(N)nc21 |  | 49.5 |  | > 100 |  | > 100 µM |  | 76.5 µM |  | > 100 µM |  | 24.6 µM |  | > 100 µM |  | > 100 µM |  | 71.6 µM |  | 69.9 µM
17 | C[C@@]1(C(=O)O)CCC[C@]2(C)C1CC[C@@]13CC(=O)[C@@](CO)(CC[C@]12O)C3 (stereo partly drawn) | 19.7 | > 100 | > 100 | > 100 | > 100 | > 100 µM | > 100 | > 100 µM | > 100 | > 100 µM | 6.16 | > 100 µM | > 100 | > 100 µM | > 100 | > 100 µM | 24.1 | > 100 µM | 11.7 | 97.8 µM
18 | Clc1nc(Cl)c2ncn(CC3(Cn4cnc5c(Cl)nc(Cl)nc54)COC3)c2n1 | 1.78 | 3.46 | 0.19 | 0.371 | 0.181 | 0.331 µM | 0.57 | 1.12 µM | 0.196 | 0.372 µM | 0.184 | 0.356 µM | 0.634 | 1.2 µM | 0.601 | 1.2 µM | 0.187 | 0.433 µM | 0.33 | 0.876 µM
19 | O=C(O)CN(CC(=O)O)Cc1cc(C#Cc2ccc(C#Cc3ccccc3)cc2)cc(CN(CC(=O)O)CC(=O)O)n1 |  | > 100 |  | 43 |  | 57.6 µM |  | 97.5 µM |  | > 85.4 µM |  | 36.2 µM |  | > 81.6 µM |  | > 86.2 µM |  | > 85.5 µM |  | 99.6 µM
20 | Oc1c(-c2nnc(-c3ccccc3Cl)o2)sc2nnc(-c3ccccc3)c(-c3ccccc3)c12 | 7.35 | 41.7 | 4.08 | 40.1 | 2.31 | > 100 µM | 3.46 | 89.7 µM | 6.27 | > 100 µM | 4.4 | > 100 µM | 7.48 | > 100 µM | 5.39 | 83.7 µM | 4.22 | 33.1 µM | 1.81 | 
21 | COc1ccc(C(=S)N2CCN(c3cccc(C)c3)CC2)cc1OC | 4.85 | > 100 | 5.85 | > 100 | 5.8 | > 100 µM | 5.92 | > 100 µM | 6.18 | 86.8 µM | 3.88 | > 100 µM | > 100 | > 100 µM | 7.99 | > 100 µM | 3.34 | 84.4 µM | 10.5 | 91.4 µM
